Converted amounts (≈) assume the structure as drawn. Where a SMILES comes first, the peptide text is derived from it.

One series can be described thus: Solubility test (water solubility, saturated solution). Format: physicochemical. The following applies: water (saturated aqueous solution), from solid: saturated aqueous solution at 25°C, sonicated approx. 10 min, centrifuged, supernatant diluted, UV absorbance at 214 nm against Samoamide A standard curve (C = 0.4646A - 0.0201). As to the method: Samoamide A was precisely weighed, and 1 mg was placed in a 10 ml centrifuge tube and diluted to scale with 95% ethanol. Then, 0, 200, 400, 600, 800, 1,000 μl aliquots were pipetted in a 5 ml centrifuge tube and adjusted to 1 ml with 95% ethanol, and the aqueous solutions were measured on a scale, sonicated for 5 min, and placed at room temperature. An additional 1 ml of 95% ethanol was added, and water was added to the same method as the blank. The absorbance values were measured at 214 nm to obtain the linear regression equation of the standard curve.
Sufficient amounts of Samoamide A and its glycosylated derivatives were dissolved in aqueous solutions at a constant temperature of 25°C, sonicated for approximately 10 min, centrifuged and allowed to settle to remove the insoluble matter from the solution, and the upper layer of supernatant was taken, that is, the saturated solution. After the saturated solution was properly diluted, its absorbance value was measured at 214 nm, and the concentration of the saturated solution was calculated by substituting the above equation ([Chevalier et al., 2001]).
As for `CC[C@H](C)[C@@H]1NC(=O)[C@@H]2CCCN2C(=O)[C@H](Cc2ccccc2)NC(=O)[C@H](C(C)C)NC(=O)[C@H](CC(C)C)NC(=O)[C@@H]2CCCN2C(=O)[C@@H]2CCCN2C(=O)[C@H](Cc2ccccc2)NC1=O` [Samoamide A] (cyclo(LVFPIFPP)), the solubility (thermodynamic) was determined as 730 µg/mL (≈ 801 µM).

The next series is described as follows: head-to-tail lactamisation of linear octapeptide (N-terminal Leu or Arg onto C-terminal Val or Arg), PyBOP (3 eq)/HOBt (3 eq)/DIPEA (6 eq), 0 °C to rt, 14 h. The following applies: the molecule shown is the open-chain precursor; 24-membered ring; DCM; 12.0 h.
The compound `CC[C@H](C)[C@H](NC(=O)[C@H](Cc1ccccc1)NC(=O)[C@@H]1CCCN1C(=O)[C@H](CCCNC(=N)N[C@@H]1O[C@H](COC(C)=O)[C@@H](OC(C)=O)[C@H](OC(C)=O)[C@H]1NC(C)=O)NC(=O)[C@@H](N)CC(C)C)C(=O)N1CCC[C@H]1C(=O)N[C@@H](Cc1ccccc1)C(=O)N[C@H](C(=O)O)C(C)C` [H-Leu-Arg(N-GlcNAc(OAc)3)-Pro-Phe-Ile-Pro-Phe-Val-OH] displayed a ring closure, overall yield of 20%.

Still in this series, the particulars now being: the molecule shown is the open-chain precursor; 24-membered ring; DCM; 14.0 h.
For `CC[C@H](C)[C@H](NC(=O)[C@H](Cc1ccccc1)NC(=O)[C@@H]1CCCN1C(=O)[C@@H]1CCCN1C(=O)[C@@H](N)CCCNC(=N)NS(=O)(=O)c1c(C)c(C)c2c(c1C)CC(C)(C)O2)C(=O)N1CCC[C@H]1C(=O)N[C@@H](Cc1ccccc1)C(=O)N[C@H](C(=O)O)C(C)C` [H-Arg(Pbf)-Pro-Pro-Phe-Ile-Pro-Phe-Val-OH], the ring closure, overall yield was determined as 9%.

`CC[C@H](C)[C@H](NC(=O)[C@H](Cc1ccccc1)NC(=O)[C@@H]1CCCN1C(=O)[C@H](CCCNC(=N)NS(=O)(=O)c1c(C)c(C)c2c(c1C)CC(C)(C)O2)NC(=O)[C@@H](N)CC(C)C)C(=O)N1CCC[C@H]1C(=O)N[C@@H](Cc1ccccc1)C(=O)N[C@H](C(=O)O)C(C)C` [H-Leu-Arg(Pbf)-Pro-Phe-Ile-Pro-Phe-Val-OH] had a ring closure, overall yield of 10%.

The compound `CC[C@H](C)[C@H](NC(=O)[C@H](Cc1ccccc1)NC(=O)[C@H](CCCNC(=N)NS(=O)(=O)c1c(C)c(C)c2c(c1C)CC(C)(C)O2)NC(=O)[C@@H]1CCCN1C(=O)[C@@H](N)CC(C)C)C(=O)N1CCC[C@H]1C(=O)N[C@@H](Cc1ccccc1)C(=O)N[C@H](C(=O)O)C(C)C` [H-Leu-Pro-Arg(Pbf)-Phe-Ile-Pro-Phe-Val-OH] registered a ring closure, overall yield of 10%.

`CC[C@H](C)[C@H](NC(=O)[C@H](CCCNC(=N)NS(=O)(=O)c1c(C)c(C)c2c(c1C)CC(C)(C)O2)NC(=O)[C@@H]1CCCN1C(=O)[C@@H]1CCCN1C(=O)[C@@H](N)CC(C)C)C(=O)N1CCC[C@H]1C(=O)N[C@@H](Cc1ccccc1)C(=O)N[C@H](C(=O)O)C(C)C` [H-Leu-Pro-Pro-Arg(Pbf)-Ile-Pro-Phe-Val-OH] gave a ring closure, overall yield of 8%.

For `Cc1c(C)c(S(=O)(=O)NC(=N)NCCC[C@H](NC(=O)[C@H](Cc2ccccc2)NC(=O)[C@@H]2CCCN2C(=O)[C@@H]2CCCN2C(=O)[C@@H](N)CC(C)C)C(=O)N2CCC[C@H]2C(=O)N[C@@H](Cc2ccccc2)C(=O)N[C@H](C(=O)O)C(C)C)c(C)c2c1OC(C)(C)C2` [H-Leu-Pro-Pro-Phe-Arg(Pbf)-Pro-Phe-Val-OH], the ring closure, overall yield amounted to 6%.

The compound `CC[C@H](C)[C@H](NC(=O)[C@H](Cc1ccccc1)NC(=O)[C@@H]1CCCN1C(=O)[C@@H]1CCCN1C(=O)[C@@H](N)CC(C)C)C(=O)N[C@@H](CCCNC(=N)NS(=O)(=O)c1c(C)c(C)c2c(c1C)CC(C)(C)O2)C(=O)N[C@@H](Cc1ccccc1)C(=O)N[C@H](C(=O)O)C(C)C` [H-Leu-Pro-Pro-Phe-Ile-Arg(Pbf)-Phe-Val-OH] displayed a ring closure, overall yield of 5%.

Take `CC[C@H](C)[C@H](NC(=O)[C@H](Cc1ccccc1)NC(=O)[C@@H]1CCCN1C(=O)[C@@H]1CCCN1C(=O)[C@@H](N)CC(C)C)C(=O)N1CCC[C@H]1C(=O)N[C@@H](CCCNC(=N)NS(=O)(=O)c1c(C)c(C)c2c(c1C)CC(C)(C)O2)C(=O)N[C@H](C(=O)O)C(C)C` [H-Leu-Pro-Pro-Phe-Ile-Pro-Arg(Pbf)-Val-OH]: the ring closure, overall yield was found to be 4%.

Regarding `CC[C@H](C)[C@H](NC(=O)[C@H](Cc1ccccc1)NC(=O)[C@@H]1CCCN1C(=O)[C@@H]1CCCN1C(=O)[C@@H](N)CC(C)C)C(=O)N1CCC[C@H]1C(=O)N[C@@H](Cc1ccccc1)C(=O)N[C@@H](CCCNC(=N)NS(=O)(=O)c1c(C)c(C)c2c(c1C)CC(C)(C)O2)C(=O)O` [H-Leu-Pro-Pro-Phe-Ile-Pro-Phe-Arg(Pbf)-OH], the ring closure, overall yield is 6%.

Consider `CC[C@H](C)[C@H](NC(=O)[C@H](Cc1ccccc1)NC(=O)[C@@H]1CCCN1C(=O)[C@@H]1CCCN1C(=O)[C@@H](N)CC(C)C)C(=O)N1CCC[C@H]1C(=O)N[C@@H](Cc1ccccc1)C(=O)N[C@H](C(=O)O)C(C)C` [H-Leu-Pro-Pro-Phe-Ile-Pro-Phe-Val-OH], for which the ring closure, overall yield is 15%.

One may read the thermodynamic solubility as solubility found after equilibrating the solid with the medium.
